According to patent US20080199449A1, “Methods and Compositions for Use in Treating Vascular Diseases and Conditions” (The General Hospital Corporation, priority 2005, published 2008):
Entries after “also recorded” stand apart in the source; their conditions may differ.

Experiments:
[1] = tested on: gridlock phenotype (atresia of the proximal aorta in grl^m145 mutants); conditions: whole zebrafish embryos; Peterson et al., Nature Biotechnology 22:595-599, 2004; cited from earlier work
[2] = tested on: gridlock phenotype (atresia of the proximal aorta in grl^m145 mutants); experiment: Suppression of the gridlock phenotype (restoration of trunk and tail circulation) in grl^m145 mutant embryos; format: in vivo, zebrafish
Experimental: Screening for suppressors of the gridlock phenotype. The screen was performed as previous described with modifications (Peterson et al., Nature Biotechnology 22:595-599, 2004). Briefly, pairs of homozygous grl^m145 zebrafish were mated, and fertilized eggs were arrayed in 96-well plates containing E3 embryo buffer. At the 6-somite stage, small molecules from the DiverSet E library (Chembridge) were added to each well, yielding a final concentration of 2.5 μM. Embryos were incubated at 28.5° C. for 48 hrs. Circulation to the tail was assessed visually using a dissecting microscope.
Fluorescent microangiography. Fluorescence microangiography was performed as previously described (Weinstein et al., Nature Medicine 1:1143-1147, 1995).

[3] = tested on: dorsal aorta and cardinal veins; experiment: Artery-vein morphology in embryos expressing GFP in endothelial cells (fli-1 promoter); format: in vivo, zebrafish; conditions: for Vascular defects at higher doses: doses higher than the 1- to 5 μM suppressing range
zebrafish embryos = experiment: Gross embryonic morphology and lethality after compound exposure; format: in vivo

## COc1ccc(SCCc2ccncc2)cc1.Cl [GS4012]
[1]
  Suppression of the vascular defect in gridlock mutant embryos (earlier screen): suppresses the vascular defect in gridlock mutant embryos
[2]; GS4898 0.75 μM, LY294002 3 μM, wortmannin 0.075 μM, GS4012 0.7 μg/mL (FIG. 1F)
  Suppression of the gridlock phenotype, single treatment at sub-effective dose: does not suppress
[2]; homozygous grl^m145 mutant zebrafish embryos
  Suppression of the gridlock phenotype (tail circulation): suppressed

## O=c1cc(N2CCOCC2)oc2c(-c3ccccc3)cccc12 [LY294002]
[3]
  Vascular defects at higher doses: severe vascular defects

## N#C/C(=C(/N)Sc1ccc(N)cc1)c1ccccc1C(F)(F)F [SL327]
Zebrafish embryos; 36-hpf embryos, GS4898 10 μM, SL327 60 μM (FIG. 5)
  Gross embryonic morphology, treatment starting at 12-hpf: moderately deformed tail curvature, but otherwise grossly intact head organogenesis, somitogenesis, and yolk extension
Zebrafish embryos; treatment of embryos at earlier stages (FIG. 5)
  Embryonic lethality and gross defects, treatment at stages earlier than 12-hpf: high degree of embryonic lethality and variable gross morphologic defects

## N#CC(=C(/N)Sc1ccccc1N)/C(C#N)=C(\N)Sc1ccccc1N [U0126]
[3]; 48-hpf fli-1 GFP embryos, GS4898 15 μM, U0126 100 μM, SL327 (FIG. 3E-G)
  Effect on aorta (artery formation): either loss or reduction of aorta; also recorded: the aorta is greatly reduced
[3]; 48-hpf fli-1 GFP embryos, GS4898 15 μM, U0126 100 μM, SL327 (FIG. 3F, G)
  Effect on vein (posterior/common cardinal vein, vein formation): expansion of the common cardinal vein; also recorded: enlarged

## COC[C@H]1OC(=O)c2coc3c2[C@@]1(C)C1=C(C3=O)[C@@H]2CCC(=O)[C@@]2(C)C[C@H]1OC(C)=O [wortmannin]
[3]
  Vascular defects at higher doses: severe vascular defects
